Measured values taken from patent publication US20200172529A1, “Chemical Compound, Pharmaceutical Composition Thereof, and Use and Application Thereof” (Beijing Hanmi Pharm. Co., Ltd., priority 2017, published 2020).

Key:
Format in all cases: biochemical
TYK2 kinase = biological target: T1, TYK2 kinase (Homo sapiens, UniProt P29597); assay: Inhibition assay of TYK2 kinase activity (ADP-Glo Kinase Assay)
T1 construct: purchased Life Technologies PR8440C
Outline: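 Enzyme at 0.8 ng/mL (2-fold final) in 40 mM Tris-HCl pH 7.5, 20 mM MgCl2, 0.1 mg/mL BSA, 1 mM DTT, preincubated 10 min with compound (6 points, 10-fold dilutions from 10 μM). ATP plus polyE4Y1 then added for 60 min at room temperature. ADP-Glo luminescence read and IC50 derived.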

JAK1 kinase = JAK1 kinase (Homo sapiens, UniProt P23458); assay: Inhibition assay of JAK1 kinase activity (ADP-Glo Kinase Assay)
Chain of JAK1 kinase (P23458 whole entry): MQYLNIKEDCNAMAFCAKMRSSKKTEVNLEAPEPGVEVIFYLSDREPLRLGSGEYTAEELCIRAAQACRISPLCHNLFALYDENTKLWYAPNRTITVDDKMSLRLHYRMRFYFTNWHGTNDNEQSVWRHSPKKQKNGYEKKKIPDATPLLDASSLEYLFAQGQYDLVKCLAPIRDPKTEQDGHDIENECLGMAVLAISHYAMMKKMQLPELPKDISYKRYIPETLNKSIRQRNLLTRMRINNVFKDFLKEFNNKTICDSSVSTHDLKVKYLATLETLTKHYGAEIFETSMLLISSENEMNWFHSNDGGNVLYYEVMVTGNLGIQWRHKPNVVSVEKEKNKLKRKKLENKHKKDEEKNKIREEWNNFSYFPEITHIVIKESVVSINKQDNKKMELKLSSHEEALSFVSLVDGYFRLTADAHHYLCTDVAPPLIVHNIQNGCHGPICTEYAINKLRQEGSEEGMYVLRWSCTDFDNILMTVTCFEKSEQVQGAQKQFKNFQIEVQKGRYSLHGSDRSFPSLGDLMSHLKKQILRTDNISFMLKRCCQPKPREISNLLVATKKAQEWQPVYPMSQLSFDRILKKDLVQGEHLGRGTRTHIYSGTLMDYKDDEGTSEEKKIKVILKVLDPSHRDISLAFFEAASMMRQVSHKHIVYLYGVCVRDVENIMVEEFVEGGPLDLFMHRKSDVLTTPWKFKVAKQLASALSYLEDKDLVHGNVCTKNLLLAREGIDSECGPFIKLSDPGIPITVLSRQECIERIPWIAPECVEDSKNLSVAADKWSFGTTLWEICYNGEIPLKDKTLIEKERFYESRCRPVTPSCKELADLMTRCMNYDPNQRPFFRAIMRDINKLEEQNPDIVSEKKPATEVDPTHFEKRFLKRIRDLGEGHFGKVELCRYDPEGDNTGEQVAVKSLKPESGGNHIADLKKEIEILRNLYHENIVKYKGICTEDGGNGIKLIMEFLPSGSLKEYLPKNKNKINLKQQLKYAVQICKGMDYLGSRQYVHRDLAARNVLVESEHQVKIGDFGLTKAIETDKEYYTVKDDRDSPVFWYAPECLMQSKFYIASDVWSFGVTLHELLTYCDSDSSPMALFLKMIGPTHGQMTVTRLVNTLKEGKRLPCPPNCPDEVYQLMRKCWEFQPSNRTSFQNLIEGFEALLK
Text: Inhibition assay of JAK1 kinase activity: the method in ADP-Glo™ Kinase Assay (Promega, V9102) was used to determine the inhibitory activity of the test compounds against JAK1 kinase.

JAK2 kinase = JAK2 kinase (Homo sapiens, UniProt O60674); assay: Inhibition assay of JAK2 kinase activity (ADP-Glo Kinase Assay)
Chain of JAK2 kinase (O60674 whole entry): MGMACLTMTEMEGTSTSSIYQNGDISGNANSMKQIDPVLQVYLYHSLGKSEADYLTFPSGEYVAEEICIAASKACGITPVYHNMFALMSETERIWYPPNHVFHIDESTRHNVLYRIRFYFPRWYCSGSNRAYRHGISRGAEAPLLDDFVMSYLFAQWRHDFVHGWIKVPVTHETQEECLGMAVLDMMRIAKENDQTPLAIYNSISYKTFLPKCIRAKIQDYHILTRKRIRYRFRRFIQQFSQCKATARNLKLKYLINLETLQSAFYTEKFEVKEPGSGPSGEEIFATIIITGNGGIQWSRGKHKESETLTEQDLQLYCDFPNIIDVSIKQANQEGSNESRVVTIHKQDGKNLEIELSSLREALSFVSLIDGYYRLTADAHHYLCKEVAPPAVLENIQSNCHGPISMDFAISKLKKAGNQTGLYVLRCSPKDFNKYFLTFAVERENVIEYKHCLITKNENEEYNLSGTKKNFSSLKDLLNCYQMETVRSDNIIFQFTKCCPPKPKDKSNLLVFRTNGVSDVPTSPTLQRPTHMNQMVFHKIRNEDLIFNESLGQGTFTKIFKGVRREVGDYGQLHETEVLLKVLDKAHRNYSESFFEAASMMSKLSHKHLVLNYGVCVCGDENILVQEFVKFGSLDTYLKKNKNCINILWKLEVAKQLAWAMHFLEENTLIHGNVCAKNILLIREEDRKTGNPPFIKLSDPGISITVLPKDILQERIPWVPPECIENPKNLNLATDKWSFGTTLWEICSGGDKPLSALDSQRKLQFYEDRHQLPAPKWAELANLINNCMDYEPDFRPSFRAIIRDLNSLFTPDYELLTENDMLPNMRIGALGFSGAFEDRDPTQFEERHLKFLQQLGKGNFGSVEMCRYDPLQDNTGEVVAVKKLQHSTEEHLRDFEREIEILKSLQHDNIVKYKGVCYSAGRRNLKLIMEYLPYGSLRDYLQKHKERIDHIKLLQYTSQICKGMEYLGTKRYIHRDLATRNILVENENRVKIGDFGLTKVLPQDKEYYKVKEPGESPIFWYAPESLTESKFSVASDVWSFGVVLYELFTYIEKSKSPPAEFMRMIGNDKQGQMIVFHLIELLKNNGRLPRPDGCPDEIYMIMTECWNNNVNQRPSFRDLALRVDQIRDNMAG
Text: Inhibition assay of JAK2 kinase activity: the method in ADP-Glo™ Kinase Assay (Promega, V9102) was used to determine the inhibitory activity of the test compounds against JAK2 kinase.

JAK3 kinase = biological target: T2, JAK3 kinase (Homo sapiens, UniProt P52333); assay: Inhibition assay of JAK3 kinase activity (ADP-Glo Kinase Assay)
T2 sequence (P52333 1-1124): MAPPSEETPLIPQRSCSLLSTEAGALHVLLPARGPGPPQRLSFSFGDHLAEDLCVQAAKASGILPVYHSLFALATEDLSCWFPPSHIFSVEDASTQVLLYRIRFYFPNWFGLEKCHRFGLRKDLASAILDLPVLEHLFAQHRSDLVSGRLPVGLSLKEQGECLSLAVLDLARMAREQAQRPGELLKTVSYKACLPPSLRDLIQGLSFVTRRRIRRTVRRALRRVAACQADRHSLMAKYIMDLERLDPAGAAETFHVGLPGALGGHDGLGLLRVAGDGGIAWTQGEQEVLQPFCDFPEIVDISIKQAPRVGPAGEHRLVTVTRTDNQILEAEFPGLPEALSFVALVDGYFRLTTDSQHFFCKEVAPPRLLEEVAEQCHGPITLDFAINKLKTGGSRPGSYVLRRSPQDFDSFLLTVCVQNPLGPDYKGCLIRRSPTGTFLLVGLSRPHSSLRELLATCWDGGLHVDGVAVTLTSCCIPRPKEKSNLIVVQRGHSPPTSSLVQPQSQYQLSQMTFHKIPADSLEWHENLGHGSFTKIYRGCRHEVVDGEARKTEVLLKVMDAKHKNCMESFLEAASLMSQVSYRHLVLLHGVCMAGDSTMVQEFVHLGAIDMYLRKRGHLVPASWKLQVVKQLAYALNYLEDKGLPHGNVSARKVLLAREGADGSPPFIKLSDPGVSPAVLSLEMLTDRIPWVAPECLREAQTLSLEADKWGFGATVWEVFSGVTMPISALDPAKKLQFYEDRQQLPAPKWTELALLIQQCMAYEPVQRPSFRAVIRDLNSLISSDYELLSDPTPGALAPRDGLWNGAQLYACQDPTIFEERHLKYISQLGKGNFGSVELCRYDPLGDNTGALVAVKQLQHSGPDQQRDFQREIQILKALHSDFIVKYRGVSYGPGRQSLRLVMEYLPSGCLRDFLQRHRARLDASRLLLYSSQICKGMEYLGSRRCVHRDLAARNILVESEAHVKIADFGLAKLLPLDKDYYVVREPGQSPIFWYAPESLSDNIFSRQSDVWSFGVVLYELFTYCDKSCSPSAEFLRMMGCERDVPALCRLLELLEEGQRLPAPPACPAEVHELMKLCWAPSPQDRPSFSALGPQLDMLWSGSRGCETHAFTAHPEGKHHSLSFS
Text: Inhibition assay of JAK3 kinase activity: the method in ADP-Glo™ Kinase Assay (Promega, V9102) was used to determine the inhibitory activity of the test compounds against JAK3 kinase.

SYK kinase = SYK kinase (Homo sapiens, UniProt P43405); assay: Inhibition assay of SYK kinase activity (ADP-Glo Kinase Assay)
Text: Inhibition assay of SYK kinase activity: the method in ADP-Glo™ Kinase Assay (Promega, V9102) was used to determine the inhibitory activity of the test compounds against SYK kinase.

T1 sequence (P29597 whole entry): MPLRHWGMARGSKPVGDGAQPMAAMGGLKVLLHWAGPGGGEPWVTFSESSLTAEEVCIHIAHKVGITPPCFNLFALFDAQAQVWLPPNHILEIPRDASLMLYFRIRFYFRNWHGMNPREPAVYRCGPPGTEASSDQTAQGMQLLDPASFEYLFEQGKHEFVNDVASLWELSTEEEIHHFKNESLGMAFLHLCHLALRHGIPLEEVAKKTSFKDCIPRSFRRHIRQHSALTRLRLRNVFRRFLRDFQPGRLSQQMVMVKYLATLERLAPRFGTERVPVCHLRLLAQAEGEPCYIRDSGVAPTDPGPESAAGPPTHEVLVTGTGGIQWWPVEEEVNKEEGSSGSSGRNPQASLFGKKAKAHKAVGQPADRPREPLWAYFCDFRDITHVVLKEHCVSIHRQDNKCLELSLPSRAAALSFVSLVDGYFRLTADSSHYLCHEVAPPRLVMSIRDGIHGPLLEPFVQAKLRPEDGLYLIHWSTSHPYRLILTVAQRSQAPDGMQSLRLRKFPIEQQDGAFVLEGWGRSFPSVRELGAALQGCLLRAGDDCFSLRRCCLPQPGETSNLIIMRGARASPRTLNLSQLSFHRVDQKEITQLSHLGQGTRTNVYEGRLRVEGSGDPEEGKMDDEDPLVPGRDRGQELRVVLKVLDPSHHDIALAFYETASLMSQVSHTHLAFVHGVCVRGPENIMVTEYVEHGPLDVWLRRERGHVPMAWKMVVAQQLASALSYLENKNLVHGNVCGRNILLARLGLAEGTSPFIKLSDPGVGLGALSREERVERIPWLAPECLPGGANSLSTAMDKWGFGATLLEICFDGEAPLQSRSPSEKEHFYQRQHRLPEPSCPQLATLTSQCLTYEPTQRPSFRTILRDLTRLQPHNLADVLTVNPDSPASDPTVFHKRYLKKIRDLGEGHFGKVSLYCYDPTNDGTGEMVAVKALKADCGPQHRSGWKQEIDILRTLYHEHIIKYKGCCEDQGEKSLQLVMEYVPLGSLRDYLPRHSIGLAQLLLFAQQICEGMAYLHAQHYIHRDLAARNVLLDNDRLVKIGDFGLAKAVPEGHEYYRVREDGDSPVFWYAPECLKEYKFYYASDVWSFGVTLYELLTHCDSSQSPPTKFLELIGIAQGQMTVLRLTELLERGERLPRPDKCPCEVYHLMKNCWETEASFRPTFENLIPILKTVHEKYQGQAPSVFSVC

Row | Structure (SMILES) | IC50 (TYK2 kinase) [nM] | IC50 (JAK1 kinase) [nM] | IC50 (JAK2 kinase) [nM] | IC50 (JAK3 kinase) [nM] | IC50 (SYK kinase) [nM]
1 | NC(=O)c1cnc(Nc2ccc3c(c2)NC[C@H](O)CO3)nc1NCC1CC1 [Example 44, 4-((cyclopropylmethyl)amino)-2-(((S)-2,3,4,5-tetrahydro-3-hydroxybenzo[b][1,4]oxazepin-7-yl)amino)pyrimidin-5-carboxamide] | < 10 | < 10 | < 10 | < 10 | 10 to 100
2 | C=CCNc1nc(Nc2ccc3c(c2)NC[C@H](O)CO3)ncc1C(N)=O [Example 60, 4-(allylamino)-2-(((S)-2,3,4,5-tetrahydro-3-hydroxybenzo[b][1,4]oxazepin-7-yl)amino)pyrimidin-5-carboxamide] | < 10 | < 10 | 10 to 100 | 10 to 100 | 10 to 100
3 | C#CCCNc1nc(Nc2ccc3c(c2)NC[C@H](O)CO3)ncc1C(N)=O [Example 66, 4-(but-3-yn-1-ylamino)-2-(((S)-2,3,4,5-tetrahydro-3-hydroxybenzo[b][1,4]oxazepin-7-yl)amino)pyrimidin-5-carboxamide] | < 10 | < 10 | 10 to 100 | 10 to 100 | 10 to 100
4 | CC1(Nc2nc(Nc3ccc4c(c3)NC[C@H](O)CO4)ncc2C(N)=O)CC1 [Example 68, 4-((1-methylcyclopropyl)amino)-2-(((S)-2,3,4,5-tetrahydro-3-hydroxybenzo[b][1,4]oxazepin-7-yl)amino)pyrimidin-5-carboxamide] | < 10 | < 10 | < 10 | 10 to 100 | 10 to 100
5 | C=CCCNc1nc(Nc2ccc3c(c2)NC[C@H](O)CO3)ncc1C(N)=O [Example 76, 4-(but-3-enylamino)-2-(((S)-2,3,4,5-tetrahydro-3-hydroxybenzo[b][1,4]oxazepin-7-yl)amino)pyrimidin-5-carboxamide] | 10 to 100 | < 10 | < 10 | < 10 | 10 to 100

Further lines, results first:

Row | IC50 (TYK2 kinase) [nM] | IC50 (JAK1 kinase) [nM] | IC50 (JAK2 kinase) [nM] | IC50 (JAK3 kinase) [nM] | IC50 (SYK kinase) [nM] | Structure (SMILES)
6 | < 10 | < 10 | 10 to 100 | 10 to 100 | 10 to 100 | CC1(CO[C@H]2CNc3cc(Nc4ncc(C(N)=O)c(NC5CC5)n4)ccc3OC2)COC1 [Example 101, 4-(cyclopropylamino)-2-(((S)-2,3,4,5-tetrahydro-3-((3-methyloxetan-3-yl)methoxy)benzo[b][1,4]oxazepin-7-yl)amino)pyrimidin-5-carboxamide]
7 | < 10 | < 10 | 10 to 100 | 10 to 100 | 10 to 100 | COCCCO[C@H]1CNc2cc(Nc3ncc(C(N)=O)c(NC4CC4)n3)ccc2OC1 [Example 98, 4-(cyclopropylamino)-2-(((S)-2,3,4,5-tetrahydro-3-(3-methoxypropoxy)benzo[b][1,4]oxazepin-7-yl)amino)pyrimidin-5-carboxamide]
8 | < 10 | < 10 | 10 to 100 | 10 to 100 | 10 to 100 | NC(=O)c1cnc(Nc2ccc3c(c2)NC[C@H](OCC2CCCO2)CO3)nc1NC1CC1 (stereo partly drawn) [Example 97, 4-(cyclopropylamino)-2-(((S)-2,3,4,5-tetrahydro-3-((tetrahydrofuran-2-yl)methoxy)benzo[b][1,4]oxazepin-7-yl)amino)pyrimidin-5-carboxamide]
9 | < 10 | < 10 | 10 to 100 | 10 to 100 | 10 to 100 | COCCO[C@H]1CNc2cc(Nc3ncc(C(N)=O)c(NC4CC4)n3)ccc2OC1 [Example 78, 4-(cyclopropylamino)-2-(((S)-2,3,4,5-tetrahydro-3-methoxyethoxybenzo[b][1,4]oxazepin-7-yl)amino)pyrimidin-5-carboxamide]
10 | < 10 | < 10 | 10 to 100 | 10 to 100 | 10 to 100 | COCCOCCO[C@H]1CNc2cc(Nc3ncc(C(N)=O)c(NC4CC4)n3)ccc2OC1 [Example 89, 4-(cyclopropylamino)-2-(((S)-2,3,4,5-tetrahydro-3-(2-(2-methoxyethoxy)ethoxy)benzo[b][1,4]oxazepin-7-yl)amino)pyrimidin-5-carboxamide]
11 | < 10 | 10 to 100 | < 10 | 10 to 100 | 10 to 100 | COCCO[C@@H]1CNc2cc(Nc3ncc(C(N)=O)c(NC4CC4)n3)ccc2OC1 [Example 86, 4-(cyclopropylamino)-2-(((R)-2,3,4,5-tetrahydro-3-methoxyethoxybenzo[b][1,4]oxazepin-7-yl)amino)pyrimidin-5-carboxamide]
12 | < 10 | 10 to 100 | < 10 | < 10 | 10 to 100 | CO[C@@H]1CNc2cc(Nc3ncc(C(N)=O)c(NC4CC4)n3)ccc2OC1 [Example 80, 4-(cyclopropylamino)-2-(((R)-2,3,4,5-tetrahydro-3-methoxybenzo[b][1,4]oxazepin-7-yl)amino)pyrimidin-5-carboxamide]
13 | < 10 | < 10 | < 10 | 10 to 100 | 10 to 100 | NC(=O)c1cnc(Nc2ccc3c(c2)NC[C@H](OCC(=O)O)CO3)nc1NC1CC1 [Example 94, 4-(cyclopropylamino)-2-(((S)-2,3,4,5-tetrahydro-3-(carboxymethoxy)benzo[b][1,4]oxazepin-7-yl)amino)pyrimidin-5-carboxamide]
